# Source: publication PMC5433425 (PeerJ, 2017)
# Several values for one entry are separate records, joined by “and”; a condition that tells them apart may be missing. Identical values can stand only once. Peptide text beside a SMILES is read from it. * marks the point of attachment. βNA = c1ccc2cc(N*)ccc2c1
# Key:
# [1] = Cytotoxicity, AlamarBlue method; type: cell-based, human; conditions: human, human monocyte-derived macrophages, three days of exposure, AlamarBlue
# Protocol: (§1) The blood was collected from healthy donors and the peripheral blood mononuclear cells were isolated by Ficoll-Paque Plus (GE Healthcare, Freiburg, Germany) density gradient centrifugation as previously described ([Machado et al., 2016]). […] Fresh medium was added at day 4 post isolation. The effect of the compounds on human monocyte-derived macrophages was evaluated using the AlamarBlue method (Molecular Probes, Life Technologies) ([O’Brien et al., 2000]), and by measuring the release of the lactate dehydrogenase (LDH) into the culture supernatants using the Pierce LDH Cytotoxicity Assay (ThermoFisher Scientific, Waltham, MA, USA) ([Chan, Moriwaki & Rosa, 2013]) according to the manufacturer’s instructions. Briefly, 5 × 10^4 cells were seeded in 96-well microplates treated with the compounds, and incubated at 37 °C with 5% CO2. After 72 h of treatment, the cell viability was assessed. For the AlamarBlue method, the dye was added to each well to a final concentration of 10% and incubated overnight at 37 °C and 5% CO2. The fluorescence was measured with a 540/35 excitation filter and a 590/20 emission filter in a Synergy HT multi-mode microplate reader. The release of LDH from damaged cells into culture supernatants, as an indicator of cytotoxicity, was measured in serum-free medium. Here the amount of enzyme activity correlates to the number of damaged cells. The specific lysis was calculated as follows: (treated cells—spontaneous LDH release)/ (maximum LDH release—spontaneous LDH release) ×100.
# [2] = system: human monocyte-derived macrophages; experiment: Cytotoxicity, AlamarBlue method; type: cell-based; conditions: for AlamarBlue fluorescence 530/25,590/35 (raw well reading): 72 h, listed as PAN
# Protocol: as §1
# [3] = system: human monocyte-derived macrophages; experiment: Cytotoxicity, LDH release; type: cell-based; conditions: raw well reading, listed as PAN
# Protocol: as §1
# [4] = concentration 10 (unit not given)
# [5] = concentration 20 (unit not given)
# [6] = concentration 40 (unit not given)
# [7] = concentration 80 (unit not given)
# [8] = concentration 160 (unit not given)
# [9] = concentration 320 (unit not given)
# [10] = concentration 640 (unit not given)
# [11] = concentration 1280 (unit not given)
# [12] = concentration 2560 (unit not given)
structure (smiles),measurement,setting,value
N=C(N)NCCC[C@H](NC(=O)[C@@H](N)Cc1ccccc1)C(=O)Nc1ccc2ccccc2c1 [PAβN] (H-Phe-Arg-βNA),CC50 at 3 days,[1]; read-out: CC50,1270 µM
same,CC90 at 3 days,[1]; read-out: CC90,3600 µM
same,"AlamarBlue fluorescence 530/25,590/35 (raw well reading)",[2]; 10 uM,5144 and 4515 and 5435
same,"AlamarBlue fluorescence 530/25,590/35 (raw well reading)",[2]; 20 uM,4321 and 4369 and 4263
same,"AlamarBlue fluorescence 530/25,590/35 (raw well reading)",[2]; 40 uM,4438 and 4039 and 4264
same,"AlamarBlue fluorescence 530/25,590/35 (raw well reading)",[2]; 80 uM,3781 and 3772 and 3994
same,"AlamarBlue fluorescence 530/25,590/35 (raw well reading)",[2]; 160 uM,3584 and 4033 and 3977
same,"AlamarBlue fluorescence 530/25,590/35 (raw well reading)",[2]; 320 uM,3356 and 3644 and 3382
same,"AlamarBlue fluorescence 530/25,590/35 (raw well reading)",[2]; 640 uM,3650 and 3381 and 3133
same,"AlamarBlue fluorescence 530/25,590/35 (raw well reading)",[2]; 1280 uM,2305 and 2619 and 2474
same,CC10,"[2]; three days of exposure, AlamarBlue",447.71 µM
same,Pierce LDH absorbance 490,[3]; [4],0.218 and 0.187 and 0.203
same,Pierce LDH absorbance 630,[3]; [4],0.102 and 0.108 and 0.118
same,Pierce LDH absorbance 490,[3]; [5],0.185 and 0.182
same,Pierce LDH absorbance 630,[3]; [5],0.094 and 0.098 and 0.113
same,Pierce LDH absorbance 490,[3]; [6],0.213 and 0.202 and 0.198
same,Pierce LDH absorbance 630,[3]; [6],0.106 and 0.115 and 0.108
same,Pierce LDH absorbance 490,[3]; [7],0.221 and 0.196 and 0.201
same,Pierce LDH absorbance 630,[3]; [7],0.11 and 0.102 and 0.112
same,Pierce LDH absorbance 490,[3]; [8],0.25 and 0.23 and 0.207
same,Pierce LDH absorbance 630,[3]; [8],0.098 and 0.096 and 0.105
same,Pierce LDH absorbance 490,[3]; [9],0.226 and 0.222 and 0.196
same,Pierce LDH absorbance 630,[3]; [9],0.099 and 0.109 and 0.1
same,Pierce LDH absorbance 490,[3]; [10],0.201 and 0.208 and 0.215
same,Pierce LDH absorbance 630,[3]; [10],0.096 and 0.11 and 0.112
same,Pierce LDH absorbance 490,[3]; [11],0.434 and 0.517 and 0.508
same,Pierce LDH absorbance 630,[3]; [11],0.175 and 0.213 and 0.218
same,Pierce LDH absorbance 490,[3]; [12],0.612 and 0.538 and 0.513
same,Pierce LDH absorbance 630,[3]; [12],0.334 and 0.228 and 0.206
